# Results from publication PMC7340254, “Structure-based screening of binding affinities via small-angle X-ray scattering” (IUCrJ, 2020).
# Columns and labels:
# [1] = biological target: T1, glutamine-binding protein (GlnBP) (Escherichia coli, UniProt P0AEQ3); assay: Isothermal titration calorimetry (ITC, this work); parameters: species or system E. coli; details: 20°C, read-out: K D (ITC, this work)
# T1 construct: Uniprot entry P0AEQ3, residues 23–248; made in house; host or cells: E. coli BL21(DE3)
# Procedure: (§1) All ITC measurements were conducted on a Malvern MicroCal PEAQ ITC at 20°C with stirring at 200 rev min^−1 using the same buffer as in SAXS measurements. The cell was initially loaded with 200 µl of 20 µM protein with an initial ligand concentration of 200 µM in the syringe to quantify His:HisBP binding. This was further adjusted in subsequent runs to resolve weaker interactions as necessary.
# [2] = biological target: T1, glutamine-binding protein (GlnBP); assay: SAXS-based ligand titration; parameters: species or system E. coli; details: ESRF, 3.0 × 10^12 photons, GlnBP 80 µM; 'no change' = no significant changes in scattering curves
# Source text: Their preliminary results have been excluded from this report.
# HisBP = biological target: HisBP; parameters: method as in Paul et al. (2016); details: ref Paul et al. (2016), read-out: K D (ITC, literature); cited from earlier work
# GlnBP = biological target: GlnBP; parameters: method as in Clifton & Jackson (2016); details: ref Clifton & Jackson (2016), read-out: K D (ITC, literature); cited from earlier work
# [3] = biological target: T2, histidine-binding protein (HisBP) (Escherichia coli, UniProt P0AEU0); assay: biochemical
# Procedure: as §1
# [4] = biological target: T2, histidine-binding protein (HisBP); assay: biochemical; remark: listed apart in the source
# Procedure: Titrations were conducted at fixed protein concentrations to exclude signal-to-noise factors. An initial mass concentration of 2.0 or 4.0 mg ml^−1 was employed in prospective experiments, then scaled to 2.0, 1.0, 0.5 and 0.25 mg ml^−1 in later concentration-variation studies. […] A total of eight beamline experiments were conducted, using the automated sample changing environments available on site, operated in constant-flow mode: three times at ESRF BM29, three at DESY P12, once at Australian Synchrotron SAXS/WAXS and once at Diamond B21. […] Furthermore, experiments at ESRF BM29 and Diamond B21 were carried out on site, while the DESY P12 experiment was carried out by mail-in. For these measurements, samples were prepared by pipetting ligand–protein mixtures onto 96-well plates prior to transport. As for the Australian Synchrotron measurements, apo–HisBP was lyophilized in its final buffer and reconstituted on site using pure H2O and then mixed with the ligands in 96-well plates.
# Buffer-subtracted intensities provided from respective synchrotron pipelines were used as starting points for analysis. […] Thus, an intermediate value of 7.2 nm was fixed for all computations involving D max including V R.
# This was used to assist in locating data points affected by sample handling errors or measurement failures, along with detectable aggregation. The ideal minimum angle after removal of parasitic scattering is 0.1–0.15 nm^−1, although a more conservative cutoff was used to collectively eliminate residual aggregation. The maximum usable q was determined by visual inspection of noise. The final ranges used across all HisBP beamline sessions were: 0.2–2.0 nm^−1 at 20 µM and below, 0.25–2.5 nm^−1 at 40 µM, and 0.3–3 nm^−1 above 80 µM. The q-ranges for DEBP and GlnBP were set to 0.1–2.8 nm^−1.
# A common scattering reference is created per HisBP concentration and per beamline experiment by averaging apo protein replicates after discarding outliers. This reference is used for both V R and χlin computations.
# To fit binding curves against metrics, we consider all titrations conducted per protein concentration per beamline experiment as a single set, after removing data points resulting from aggregation, preparation errors or measurement errors. […] Since the two-state binding curve at constant [R] cannot effectively discriminate between K D values much larger or smaller than [R], fitted K D values are limited to within four orders of magnitude of the receptor concentration (cf. Fig. S1). […] Error bars indicate σ of logK D from the ensemble of replicate predictions. For metrics where uncertainty was not computed (V R and V P), the uncertainty was estimated by single-point removal, where K D was recomputed after removal of each titration point. The σ of the resulting replicates are taken as the σ of logK D. To eliminate cases where the fitting process fails due to ill-constrained parameters, replicates were discarded if the fitted apo–holo differences were >3σ from the mean value of all replicates.
# [5] = biological target: T2, histidine-binding protein (HisBP); assay: NMR chemical shift perturbation titration; parameters: Uniprot entry P0AEU0, residues 23–260; His6 tag with TEV cleavage site (N, cleaved yes); made in house; host or cells: E. coli BL21(DE3); species or system E. coli; details: HisBP 200 µM, 298 K, chemical shift perturbations; read-out: K D (NMR)
# Source text: All NMR experiments have been carried out at 298 K on an 800 MHz Bruker Avance III NMR spectrometer equipped with a cryogenic probehead. […] Data were processed with NMRpipe (Delaglio et al., 1995[▸]), analyzed using NMRFAM-Sparky (Lee et al., 2015[▸]) and visualized with Python modules nmrglue and matplotlib (Helmus & Jaroniec, 2013[▸]; Hunter, 2007[▸]).
# Backbone assignments of apo- and His-bound HisBP have been derived from BMRB entries 19242 and 19245 (Chu et al., 2013[▸]). The assignment of Arg-bound HisBP is produced by extending the apo-HisBP assignment along titrations, leaving sites in slow exchange unassigned. For affinity computations based on chemical shift perturbations, ^1H and ^15N shifts have been combined to a composite shift δ = [(δH)^2 + (0.2δN)^2]^1/2. The derivation of an overall dissociation constant from chemical shift perturbations follows the work by Williamson (2013[▸]), where the shift in peak position is used to derive free and bound populations without considering peak intensities. The effect of site-specific exchange rates upon peak positions is taken into account (London, 1993[▸]). We discarded residues with either insignificant shifts at saturation (δ < 0.05) or which were in slow exchange such that peak positions alone were no longer informative. […]
# T2 sequence (P0AEU0 23-260): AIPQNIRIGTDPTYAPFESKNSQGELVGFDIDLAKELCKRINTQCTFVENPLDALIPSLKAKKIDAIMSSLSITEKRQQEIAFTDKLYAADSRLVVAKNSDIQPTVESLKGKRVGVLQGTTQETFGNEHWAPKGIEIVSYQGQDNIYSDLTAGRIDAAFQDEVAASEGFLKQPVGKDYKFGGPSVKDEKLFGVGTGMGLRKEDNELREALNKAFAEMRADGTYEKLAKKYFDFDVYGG
# T1 sequence (P0AEQ3 23-248): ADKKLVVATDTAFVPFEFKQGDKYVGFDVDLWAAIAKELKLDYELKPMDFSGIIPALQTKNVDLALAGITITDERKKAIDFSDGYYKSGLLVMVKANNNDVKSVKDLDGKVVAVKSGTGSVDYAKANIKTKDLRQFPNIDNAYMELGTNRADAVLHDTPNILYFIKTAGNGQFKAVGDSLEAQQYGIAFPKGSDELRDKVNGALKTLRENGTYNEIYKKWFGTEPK
smiles,measurement,setting,value
"N=C(N)NCCC[C@H](N)C(=O)O [Arg, arginine]",Kd,[1],78.9 ± 8.6 µM
same,K D derived from V R titration curves (result in words),[2],No change
same,Kd,HisBP,3 ± 1 µM
same,Kd,GlnBP,93.8 ± 7.4 µM
same,Kd,[3],2.06 ± 0.22 µM
same,Kd,"[4]; K D fitted to SAXS V R titration curves, AustSynch, 20s exposure, […] 10^13 photons, HisBP 19 µM",2.8 ± 0.31 µM
same,Kd,"[4]; K D fitted to SAXS V R titration curves, AustSynch, 20s exposure, […] 10^13 photons, HisBP 38 µM",3 ± 1.4 µM
same,Kd,"[4]; K D fitted to SAXS V R titration curves, AustSynch, 20s exposure, […] 10^13 photons, HisBP 76 µM",5.5 ± 1.4 µM
same,Kd,"[4]; K D fitted to SAXS V R titration curves, DESY, 4s exposure, […] 10^13 photons, HisBP 20 µM",33 ± 4.5 µM
same,Kd,"[4]; K D fitted to SAXS V R titration curves, DESY, 4s exposure, […] 10^13 photons, HisBP 40 µM",74 ± 19 µM
same,Kd,"[4]; K D fitted to SAXS V R titration curves, DESY, 4s exposure, […] 10^13 photons, HisBP 80 µM",5.9 ± 0.6 µM
same,Kd,"[4]; K D fitted to SAXS V R titration curves, Diamond, 40s exposure, […] 10^14 photons, HisBP 10 µM",0.37 ± 0.14 µM
same,Kd,"[4]; K D fitted to SAXS V R titration curves, Diamond, 40s exposure, […] 10^14 photons, HisBP 20 µM",0.92 ± 0.11 µM
same,Kd,"[4]; K D fitted to SAXS V R titration curves, Diamond, 40s exposure, […] 10^14 photons, HisBP 40 µM",4.8 ± 0.48 µM
same,Kd,"[4]; K D fitted to SAXS V R titration curves, Diamond, 40s exposure, […] 10^14 photons, HisBP 80 µM",7.3 ± 1.9 µM
same,Kd,"[4]; K D fitted to SAXS V R titration curves, ESRF, 5s exposure, 3.0 × 10^12 photons, HisBP 38 µM",2 ± 1.9 µM
same,Kd,"[4]; K D fitted to SAXS V R titration curves, ESRF, 5s exposure, 3.0 × 10^12 photons, HisBP 160 µM",0.71 ± 1 µM
same,Kd,"[4]; KD fitted to SAXS Rg curves, AustSynch, 20s exposure, HisBP 19 µM",7.7 ± 2 µM
same,Kd,"[4]; KD fitted to SAXS Rg curves, AustSynch, 20s exposure, HisBP 38 µM",0.052 ± 0.04 µM
same,Kd,"[4]; KD fitted to SAXS Rg curves, AustSynch, 20s exposure, HisBP 76 µM",1.6 µM
same,Kd,"[4]; KD fitted to SAXS Rg curves, DESY, 4s exposure, HisBP 20 µM",15 ± 6.8 µM
same,Kd,"[4]; KD fitted to SAXS Rg curves, DESY, 4s exposure, HisBP 40 µM",150 ± 52 µM
same,Kd,"[4]; KD fitted to SAXS Rg curves, DESY, 4s exposure, HisBP 80 µM",27 ± 7.1 µM
same,Kd,"[4]; KD fitted to SAXS Rg curves, Diamond, 40s exposure, HisBP 20 µM",0.81 µM
same,Kd,"[4]; KD fitted to SAXS Rg curves, Diamond, 40s exposure, HisBP 40 µM",1.5 ± 4.4 µM
same,Kd,"[4]; KD fitted to SAXS Rg curves, Diamond, 40s exposure, HisBP 80 µM",1.1 ± 2.5 µM
same,Kd,"[4]; KD fitted to SAXS Rg curves, ESRF, 5s exposure, HisBP 38 µM",2.6 µM
same,Kd,"[4]; KD fitted to SAXS Rg curves, ESRF, 5s exposure, HisBP 160 µM",0.39 ± 0.28 µM
same,Kd,"[4]; KD fitted to SAXS Vc curves, AustSynch, 20s exposure, HisBP 19 µM",2.1 ± 6 µM
same,Kd,"[4]; KD fitted to SAXS Vc curves, AustSynch, 20s exposure, HisBP 38 µM",3.7 ± 6.6 µM
same,Kd,"[4]; KD fitted to SAXS Vc curves, AustSynch, 20s exposure, HisBP 76 µM",2 µM
same,Kd,"[4]; KD fitted to SAXS Vc curves, DESY, 4s exposure, HisBP 20 µM",6.3 µM
same,Kd,"[4]; KD fitted to SAXS Vc curves, DESY, 4s exposure, HisBP 80 µM",0.017 ± 0.041 µM
same,Kd,"[4]; KD fitted to SAXS Vc curves, Diamond, 40s exposure, HisBP 20 µM",6.3 µM
same,Kd,"[4]; KD fitted to SAXS Vc curves, Diamond, 40s exposure, HisBP 80 µM",0.038 µM
same,Kd,"[4]; KD fitted to SAXS Vc curves, ESRF, 5s exposure, HisBP 7.6 µM",0.28 ± 0.72 µM
same,Kd,"[4]; KD fitted to SAXS Vc curves, ESRF, 5s exposure, HisBP 38 µM",0.075 µM
same,Kd,"[4]; KD fitted to SAXS Vc curves, ESRF, 5s exposure, HisBP 160 µM",0.91 µM
same,Kd,"[4]; KD fitted to SAXS χlin. curves, AustSynch, 20s exposure, HisBP 19 µM",11 ± 7.6 µM
same,Kd,"[4]; KD fitted to SAXS χlin. curves, AustSynch, 20s exposure, HisBP 38 µM",10 ± 2 µM
same,Kd,"[4]; KD fitted to SAXS χlin. curves, AustSynch, 20s exposure, HisBP 76 µM",11 ± 1.4 µM
same,Kd,"[4]; KD fitted to SAXS χlin. curves, DESY, 4s exposure, HisBP 20 µM",4.1 ± 2.1 µM
same,Kd,"[4]; KD fitted to SAXS χlin. curves, DESY, 4s exposure, HisBP 40 µM",140 ± 42 µM
same,Kd,"[4]; KD fitted to SAXS χlin. curves, DESY, 4s exposure, HisBP 80 µM",42 ± 6.7 µM
same,Kd,"[4]; KD fitted to SAXS χlin. curves, Diamond, 40s exposure, HisBP 20 µM",1.4 µM
same,Kd,"[4]; KD fitted to SAXS χlin. curves, Diamond, 40s exposure, HisBP 40 µM",23 ± 7.1 µM
same,Kd,"[4]; KD fitted to SAXS χlin. curves, Diamond, 40s exposure, HisBP 80 µM",0.012 ± 0.02 µM
same,Kd,"[4]; KD fitted to SAXS χlin. curves, ESRF, 5s exposure, HisBP 7.6 µM",1.9 ± 2 µM
same,Kd,"[4]; KD fitted to SAXS χlin. curves, ESRF, 5s exposure, HisBP 152 µM",0.091 µM
same,Kd,[5],0.56 µM
